From PMC11671526, “β-caryophyllene sensitizes hepatocellular carcinoma cells to chemotherapeutics and inhibits cell malignancy through targeting MAPK signaling pathway” (Frontiers in Pharmacology, 2024)

Test system: HepG2 cells
Experiment: RNA-seq transcriptome analysis of differentially expressed genes
Type: cell-based, human
Conditions: BCP vs control HepG2
Method: The quality and concentration of RNA were examined by MOPS RNA electrophoresis and Eppendorf BioSpectrometer. The transcriptome analysis was performed by BGI-Wuhan China. The RNA-seq dataset of this study is accessible in the Gene Expression Omnibus (GEO) with an access number of GSE276099. The sequence library for each sample was prepared using the BGISEQ-500 platform with a 50-bp single-end (SE50) format. […]2.2.1) was used to align the clean reads to the reference genome and alignment of the clean reads to the reference genes was carried out using Bowtie2 (v2.4.5) ([Langmead and Salzberg, 2012]; [Kim et al., 2015]). Gene expression levels were calculated by RSEM (v1.3.1) ([Li and Dewey, 2011]). Analysis of differential gene expression was performed using edgeR in the Bioconductor software package ([Robinson et al., 2010]). Using a standard protocol, the RNA samples were also examined by reverse transcription and quantitative polymerase chain reaction (RT-qPCR). In brief, for reverse transcription, total RNA (1 μg) and gDNA wiper Mix were incubated at 42°C for 2 min. The samples were immediately incubated with a master mix containing 10 pmol/μL of poly (dT) primers at 37°C for 15 min and 85°C for 5 s. To detect the expression of specific genes by qPCR analysis, gene-specific primers (shown in Supplementary Table S1) were mixed with the ChamQ Universal SYBER qPCR Master Mix and the reaction was conducted using the Roche Lightcycler 480. The GAPDH value was used to normalize the results of each gene. The RNA-seq data of BCP-treated HepG2 cells were screened for DEGs. Gene symbols were turned into Enterz ID using the org.Hs.eg.db Bio-conductor R package. The cluster profiler (v4.6.2) package was used to perform the Kyoto Encyclopedia of Genes and Genomes (KEGG) and Gene Ontology (GO) enrichment analyses ([Wu et al., 2021]). Following the Transcript per million (TPM) data of the dataset, the line chart, and heatmap were plotted using ggplot2 and pheatmap R packages, respectively.

Question: `C=C1CC/C=C(\C)CC[C@@H]2[C@@H]1CC2(C)C` [BCP, β-caryophyllene] was tested. Which “change EGLN3” value (gene EGLN3, DEG direction) did it give?
Answer: Down

Question: What about the “logFC EHF” value (gene EHF, RNA-seq) of the same molecule?
Answer: -2.096

Question: And the “change EHF” value (gene EHF, DEG direction)?
Answer: Down

Question: And the “logFC EPHX1” value (gene EPHX1, RNA-seq)?
Answer: -0.6153

Question: And the “change EPHX1” value (gene EPHX1, DEG direction)?
Answer: Down

Question: What about the “logFC ETNPPL” value (gene ETNPPL, RNA-seq) of the same molecule?
Answer: -2.349

Question: What about the “change ETNPPL” value (gene ETNPPL, DEG direction) of the same molecule?
Answer: Down

Question: And the “logFC EVA1A” value (gene EVA1A, RNA-seq)?
Answer: -3.085

Question: And the “change EVA1A” value (gene EVA1A, DEG direction)?
Answer: Down

Question: And the “logFC F2RL1” value (gene F2RL1, RNA-seq)?
Answer: -0.7544

Question: And the “change F2RL1” value (gene F2RL1, DEG direction)?
Answer: Down

Question: What about the “logFC FAH” value (gene FAH, RNA-seq) of the same molecule?
Answer: 0.7875

Question: And the “change FAH” value (gene FAH, DEG direction)?
Answer: Up

Question: And the “logFC FAM13C” value (gene FAM13C, RNA-seq)?
Answer: 0.699

Question: What about the “change FAM13C” value (gene FAM13C, DEG direction) of the same molecule?
Answer: Up

Question: What about the “logFC FAM72C” value (gene FAM72C, RNA-seq) of the same molecule?
Answer: 1.971

Question: What about the “change FAM72C” value (gene FAM72C, DEG direction) of the same molecule?
Answer: Up

Question: What about the “logFC FBXO2” value (gene FBXO2, RNA-seq) of the same molecule?
Answer: -0.7473

Question: What about the “change FBXO2” value (gene FBXO2, DEG direction) of the same molecule?
Answer: Down

Question: And the “logFC FBXO27” value (gene FBXO27, RNA-seq)?
Answer: -1.235

Question: What about the “change FBXO27” value (gene FBXO27, DEG direction) of the same molecule?
Answer: Down

Question: What about the “logFC FBXO44” value (gene FBXO44, RNA-seq) of the same molecule?
Answer: -0.6394

Question: What about the “change FBXO44” value (gene FBXO44, DEG direction) of the same molecule?
Answer: Down

Question: And the “logFC FGFBP1” value (gene FGFBP1, RNA-seq)?
Answer: -1.07

Question: And the “change FGFBP1” value (gene FGFBP1, DEG direction)?
Answer: Down

Question: And the “logFC FRMD3” value (gene FRMD3, RNA-seq)?
Answer: -1.073

Question: And the “change FRMD3” value (gene FRMD3, DEG direction)?
Answer: Down

Question: And the “logFC FZD4” value (gene FZD4, RNA-seq)?
Answer: -0.6196

Question: What about the “change FZD4” value (gene FZD4, DEG direction) of the same molecule?
Answer: Down

Question: And the “logFC GALNT13” value (gene GALNT13, RNA-seq)?
Answer: 1.877

Question: And the “change GALNT13” value (gene GALNT13, DEG direction)?
Answer: Up

Question: And the “logFC GALNTL6” value (gene GALNTL6, RNA-seq)?
Answer: 1.303

Question: And the “change GALNTL6” value (gene GALNTL6, DEG direction)?
Answer: Up

Question: And the “logFC GBP2” value (gene GBP2, RNA-seq)?
Answer: -1.229

Question: And the “change GBP2” value (gene GBP2, DEG direction)?
Answer: Down

Question: What about the “logFC GIPR” value (gene GIPR, RNA-seq) of the same molecule?
Answer: -0.7811

Question: And the “change GIPR” value (gene GIPR, DEG direction)?
Answer: Down

Question: And the “logFC GJB5” value (gene GJB5, RNA-seq)?
Answer: -0.706

Question: And the “change GJB5” value (gene GJB5, DEG direction)?
Answer: Down

Question: And the “logFC GLIS3” value (gene GLIS3, RNA-seq)?
Answer: 0.614

Question: And the “change GLIS3” value (gene GLIS3, DEG direction)?
Answer: Up

Question: What about the “logFC GNAZ” value (gene GNAZ, RNA-seq) of the same molecule?
Answer: -0.722

Question: What about the “change GNAZ” value (gene GNAZ, DEG direction) of the same molecule?
Answer: Down

Question: What about the “logFC GOLGA6L10” value (gene GOLGA6L10, RNA-seq) of the same molecule?
Answer: 2.939

Question: What about the “change GOLGA6L10” value (gene GOLGA6L10, DEG direction) of the same molecule?
Answer: Up

Question: What about the “logFC GPER1” value (gene GPER1, RNA-seq) of the same molecule?
Answer: -0.7995

Question: And the “change GPER1” value (gene GPER1, DEG direction)?
Answer: Down

Question: And the “logFC GPNMB” value (gene GPNMB, RNA-seq)?
Answer: 0.8482

Question: And the “change GPNMB” value (gene GPNMB, DEG direction)?
Answer: Up

Question: What about the “logFC GSDME” value (gene GSDME, RNA-seq) of the same molecule?
Answer: 0.7468

Question: What about the “change GSDME” value (gene GSDME, DEG direction) of the same molecule?
Answer: Up

Question: And the “logFC H1-2” value (gene H1-2, RNA-seq)?
Answer: -0.7028

Question: What about the “change H1-2” value (gene H1-2, DEG direction) of the same molecule?
Answer: Down

Question: And the “logFC H2AC6” value (gene H2AC6, RNA-seq)?
Answer: -0.6896

Question: And the “change H2AC6” value (gene H2AC6, DEG direction)?
Answer: Down

Question: What about the “logFC H2AC18” value (gene H2AC18, RNA-seq) of the same molecule?
Answer: -0.6059

Question: And the “change H2AC18” value (gene H2AC18, DEG direction)?
Answer: Down

Question: What about the “logFC H2BC5” value (gene H2BC5, RNA-seq) of the same molecule?
Answer: -0.8919

Question: What about the “change H2BC5” value (gene H2BC5, DEG direction) of the same molecule?
Answer: Down

Question: What about the “logFC H2BC11” value (gene H2BC11, RNA-seq) of the same molecule?
Answer: -0.8769

Question: And the “change H2BC11” value (gene H2BC11, DEG direction)?
Answer: Down

Question: What about the “logFC H2BC12” value (gene H2BC12, RNA-seq) of the same molecule?
Answer: -0.7141

Question: And the “change H2BC12” value (gene H2BC12, DEG direction)?
Answer: Down

Question: And the “logFC H2BC21” value (gene H2BC21, RNA-seq)?
Answer: -0.7522

Question: What about the “change H2BC21” value (gene H2BC21, DEG direction) of the same molecule?
Answer: Down

Question: What about the “logFC H3C14” value (gene H3C14, RNA-seq) of the same molecule?
Answer: -8.816

Question: And the “change H3C14” value (gene H3C14, DEG direction)?
Answer: Down

Question: What about the “logFC H3C15” value (gene H3C15, RNA-seq) of the same molecule?
Answer: 8.416

Question: What about the “change H3C15” value (gene H3C15, DEG direction) of the same molecule?
Answer: Up

Question: What about the “logFC HHLA2” value (gene HHLA2, RNA-seq) of the same molecule?
Answer: -1.815

Question: And the “change HHLA2” value (gene HHLA2, DEG direction)?
Answer: Down

Question: And the “logFC HIC1” value (gene HIC1, RNA-seq)?
Answer: -1.286

Question: And the “change HIC1” value (gene HIC1, DEG direction)?
Answer: Down

Question: What about the “logFC HID1” value (gene HID1, RNA-seq) of the same molecule?
Answer: -3.326

Question: What about the “change HID1” value (gene HID1, DEG direction) of the same molecule?
Answer: Down

Question: And the “logFC HJURP” value (gene HJURP, RNA-seq)?
Answer: 0.601

Question: What about the “change HJURP” value (gene HJURP, DEG direction) of the same molecule?
Answer: Up

Question: And the “logFC HK1” value (gene HK1, RNA-seq)?
Answer: -0.5879

Question: And the “change HK1” value (gene HK1, DEG direction)?
Answer: Down

Question: What about the “logFC HMG20B” value (gene HMG20B, RNA-seq) of the same molecule?
Answer: 0.778

Question: What about the “change HMG20B” value (gene HMG20B, DEG direction) of the same molecule?
Answer: Up

Question: What about the “logFC HMMR” value (gene HMMR, RNA-seq) of the same molecule?
Answer: 0.8153

Question: And the “change HMMR” value (gene HMMR, DEG direction)?
Answer: Up

Question: What about the “logFC HPDL” value (gene HPDL, RNA-seq) of the same molecule?
Answer: -0.6564

Question: What about the “change HPDL” value (gene HPDL, DEG direction) of the same molecule?
Answer: Down

Question: What about the “logFC HSPA5” value (gene HSPA5, RNA-seq) of the same molecule?
Answer: 0.6968

Question: And the “change HSPA5” value (gene HSPA5, DEG direction)?
Answer: Up

Question: And the “logFC IFI35” value (gene IFI35, RNA-seq)?
Answer: 0.5837

Question: And the “change IFI35” value (gene IFI35, DEG direction)?
Answer: Up

Question: And the “logFC IFITM1” value (gene IFITM1, RNA-seq)?
Answer: -1.457

Question: What about the “change IFITM1” value (gene IFITM1, DEG direction) of the same molecule?
Answer: Down

Question: And the “logFC IL34” value (gene IL34, RNA-seq)?
Answer: -0.7177

Question: And the “change IL34” value (gene IL34, DEG direction)?
Answer: Down

Question: What about the “logFC IQGAP3” value (gene IQGAP3, RNA-seq) of the same molecule?
Answer: 0.8425

Question: What about the “change IQGAP3” value (gene IQGAP3, DEG direction) of the same molecule?
Answer: Up

Question: What about the “logFC ITPR1” value (gene ITPR1, RNA-seq) of the same molecule?
Answer: 0.8272

Question: What about the “change ITPR1” value (gene ITPR1, DEG direction) of the same molecule?
Answer: Up

Question: And the “logFC KCNH3” value (gene KCNH3, RNA-seq)?
Answer: -0.6893

Question: And the “change KCNH3” value (gene KCNH3, DEG direction)?
Answer: Down

Question: What about the “logFC KCNJ18” value (gene KCNJ18, RNA-seq) of the same molecule?
Answer: 0.8616

Question: What about the “change KCNJ18” value (gene KCNJ18, DEG direction) of the same molecule?
Answer: Up

Question: And the “logFC KCNK3” value (gene KCNK3, RNA-seq)?
Answer: -0.6699

Question: What about the “change KCNK3” value (gene KCNK3, DEG direction) of the same molecule?
Answer: Down

Question: What about the “logFC KIAA1614” value (gene KIAA1614, RNA-seq) of the same molecule?
Answer: 0.6603

Question: What about the “change KIAA1614” value (gene KIAA1614, DEG direction) of the same molecule?
Answer: Up

Question: What about the “logFC KLHDC7B” value (gene KLHDC7B, RNA-seq) of the same molecule?
Answer: 0.8443

Question: And the “change KLHDC7B” value (gene KLHDC7B, DEG direction)?
Answer: Up

Question: What about the “logFC KLRG1” value (gene KLRG1, RNA-seq) of the same molecule?
Answer: -1.335

Question: And the “change KLRG1” value (gene KLRG1, DEG direction)?
Answer: Down

Question: What about the “logFC LCK” value (gene LCK, RNA-seq) of the same molecule?
Answer: -3.081

Question: And the “change LCK” value (gene LCK, DEG direction)?
Answer: Down

Question: And the “logFC LFNG” value (gene LFNG, RNA-seq)?
Answer: -0.7084

Question: And the “change LFNG” value (gene LFNG, DEG direction)?
Answer: Down

Question: What about the “logFC LHFPL2” value (gene LHFPL2, RNA-seq) of the same molecule?
Answer: -0.5801

Question: What about the “change LHFPL2” value (gene LHFPL2, DEG direction) of the same molecule?
Answer: Down

Question: What about the “logFC LIMS3” value (gene LIMS3, RNA-seq) of the same molecule?
Answer: 8.319

Question: What about the “change LIMS3” value (gene LIMS3, DEG direction) of the same molecule?
Answer: Up
